Reference: article PMC4501006, “Preliminary Characterization and In Vivo Studies of Structurally Identical ^18F- and ^125I-Labeled Benzyloxybenzenes for PET/SPECT Imaging of β-Amyloid Plaques” (Scientific Reports, 2015)

Assay: In vivo biodistribution in normal ICR mice
Settings: i.v.
Experimental: Histograms of brain and intestine uptake were presented in Fig. 6 for comparison, while detailed data concerning the in vivo biodistribution in normal ICR mice were collected in Table S3 in Supplementary information. […] [^125I]7a and [^125I]12a were rapidly cleared from the normal brain, with only small amounts of radioactivity remaining at 60 min post-injection (0.55% ID/g for [^125I]7a and 0.37% ID/g for [^125I]12a). […] In addition, no significant deiodination was observed (less than 0.5% ID in the thyroid at 60 min).
As the specific activity of ^18F-labeled ligands (about 60 GBq/μmol) was slightly lower than that of corresponding no-carrier-added ^125I-labeled ligands (81 GBq/μmol), the impact of specific activity on pharmacokinetics was studied. In vivo biodistribution of radioactivity after injection of carrier-added [^125I]7a with equal specific activity to corresponding [^18F]7a (60 GBq/μmol) was conducted in normal ICR mice through the same procedure.
A structural model of an Aβ fiber (PDB ID: 2LMO) derived from solid state NMR was downloaded from the RCSB Protein Data Bank (www.rcsb.org/pdb). Geometric optimization was performed using Gaussian 09 at the B3LYP/6–31 G and 3-21G levels in the water phase. Molecular docking was performed using AutoDock4.0, and the docking results were graphed with VMD 1.9.1 software. SYBYL-X 1.1 software was used to predict the binding affinities with previously constructed 3D-QSAR models. All reagents for chemical synthesis were used as purchased without further purification. [^125I]NaI was purchased from PerkinElmer and ^18F^– was kindly provided by the Chinese PLA General Hospital. ^1H and ^13C NMR spectra were recorded on a Bruker Avance III NMR spectrometer (400 MHz for ^1H; 101 MHz for ^13C) in CDCl3 or DMSO-d6 solutions at room temperature. Mass spectra were acquired with a GCT CA127 Micronass UK instrument. X-ray crystallographic data of compound 12a were collected on a Bruker Smart APEX II diffractometer (Bruker Co., Germany) and deposited at the Cambridge Crystallographic Data Centre as supplementary publication (no. CCDC 1063679). HPLC analysis was performed on a Shimadzu SCL-20 AVP equipped with a Bioscan Flow Count 3200 NaI/PMT γ-radiation scintillation detector and a SPD-20A UV detector, λ = 254 nm. A Venusil MP C18 reverse phase column (Agela Technologies, 5 μm, 4.6 × 250 mm) was used for separations and purity determinations with a binary gradient system (acetonitrile: water = 80%: 20%) at a 1.0 mL/min flow rate. Fluorescent observation was performed on the Axio Observer Z1 inverted fluorescence microscope (Zeiss, Germany) equipped with a DAPI filter set (excitation, 405 nm). Post-mortem brain sections from an autopsy-confirmed AD subject and a control subject were acquired from the Chinese Brain Bank. Transgenic mice (APPswe/PSEN1, male) and wild-type mice (C57BL6, male) were purchased from the Institute of Laboratory Animal Science, Chinese Academy of Medical Sciences. Normal ICR mice (20–22 g, male) were used for in vivo biodistribution, dynamic PET/CT and SPECT/CT scans, and biostability experiments. All experiments on mice were performed in accordance with the guidelines approved by the animal care committee of Beijing Normal University and Xiamen University.

[18F]CCOc1ccc(OCc2ccc(I)cc2)cc1 [[^18F]7a]
brain2 min/brain60 min ratio: 1.8 | Biodistribution of radioactivity, blood (2 min): 5.99 ± 0.16 % injected dose per gram | Biodistribution of radioactivity, bone (2 min): 2.53 ± 0.43 % injected dose per gram | Biodistribution of radioactivity, brain (2 min): > 5 % injected dose per gram | Biodistribution of radioactivity, heart (2 min): 9.32 ± 0.27 % injected dose per gram | Biodistribution of radioactivity, intestine (2 min): 6.38 ± 1.04 % injected dose per organ | Biodistribution of radioactivity, kidney (2 min): 12.70 ± 0.69 % injected dose per gram | Biodistribution of radioactivity, liver (2 min): 17.83 ± 1.41 % injected dose per gram | Biodistribution of radioactivity, lung (2 min): 9.34 ± 0.45 % injected dose per gram | Biodistribution of radioactivity, muscle (2 min): 5.03 ± 0.63 % injected dose per gram | Biodistribution of radioactivity, pancreas (2 min): 8.18 ± 0.79 % injected dose per gram | Biodistribution of radioactivity, spleen (2 min): 5.92 ± 1.30 % injected dose per gram | Biodistribution of radioactivity, stomach (2 min): 1.55 ± 0.11 % injected dose per organ | Biodistribution of radioactivity, brain (2 min, listed as [18F]7a): 6.14 ± 0.52 % injected dose per gram | Biodistribution of radioactivity, blood (10 min): 4.29 ± 0.14 % injected dose per gram | Biodistribution of radioactivity, bone (10 min): 1.55 ± 0.50 % injected dose per gram | Biodistribution of radioactivity, brain (10 min): 4.78 ± 0.11 % injected dose per gram | Biodistribution of radioactivity, heart (10 min): 4.03 ± 0.34 % injected dose per gram | Biodistribution of radioactivity, intestine (10 min): 5.38 ± 0.33 % injected dose per organ | Biodistribution of radioactivity, kidney (10 min): 7.69 ± 1.15 % injected dose per gram | Biodistribution of radioactivity, liver (10 min): 6.07 ± 0.27 % injected dose per gram | Biodistribution of radioactivity, lung (10 min): 4.63 ± 0.35 % injected dose per gram | Biodistribution of radioactivity, muscle (10 min): 3.46 ± 0.19 % injected dose per gram | Biodistribution of radioactivity, pancreas (10 min): 3.96 ± 0.15 % injected dose per gram | Biodistribution of radioactivity, spleen (10 min): 3.33 ± 0.20 % injected dose per gram | Biodistribution of radioactivity, stomach (10 min): 1.24 ± 0.13 % injected dose per organ | Biodistribution of radioactivity, blood (30 min): 4.36 ± 0.20 % injected dose per gram | Biodistribution of radioactivity, bone (30 min): 2.70 ± 0.48 % injected dose per gram | Biodistribution of radioactivity, brain (30 min): 3.85 ± 0.24 % injected dose per gram | Biodistribution of radioactivity, heart (30 min): 4.20 ± 0.52 % injected dose per gram | Biodistribution of radioactivity, intestine (30 min): 5.95 ± 0.89 % injected dose per organ | Biodistribution of radioactivity, kidney (30 min): 6.12 ± 0.79 % injected dose per gram | Biodistribution of radioactivity, liver (30 min): 4.31 ± 0.32 % injected dose per gram | Biodistribution of radioactivity, lung (30 min): 4.21 ± 0.18 % injected dose per gram | Biodistribution of radioactivity, muscle (30 min): 3.82 ± 0.40 % injected dose per gram | Biodistribution of radioactivity, pancreas (30 min): 3.62 ± 0.30 % injected dose per gram | Biodistribution of radioactivity, spleen (30 min): 3.38 ± 0.23 % injected dose per gram | Biodistribution of radioactivity, stomach (30 min): 1.82 ± 0.48 % injected dose per organ | Biodistribution of radioactivity, blood (60 min): 4.97 ± 0.12 % injected dose per gram | Biodistribution of radioactivity, bone (60 min): 4.16 ± 0.59 % injected dose per gram | Biodistribution of radioactivity, brain (60 min): 3.48 % injected dose per gram | Biodistribution of radioactivity, heart (60 min): 4.26 ± 0.13 % injected dose per gram | Biodistribution of radioactivity, intestine (60 min): 8.13 ± 1.01 % injected dose per organ | Biodistribution of radioactivity, kidney (60 min): 4.77 ± 0.52 % injected dose per gram | Biodistribution of radioactivity, liver (60 min): 3.84 ± 0.21 % injected dose per gram | Biodistribution of radioactivity, lung (60 min): 4.32 ± 0.17 % injected dose per gram | Biodistribution of radioactivity, muscle (60 min): 4.31 ± 0.38 % injected dose per gram | Biodistribution of radioactivity, pancreas (60 min): 2.89 ± 0.37 % injected dose per gram | Biodistribution of radioactivity, spleen (60 min): 3.28 ± 0.29 % injected dose per gram | Biodistribution of radioactivity, stomach (60 min): 1.58 ± 0.18 % injected dose per organ | Biodistribution of radioactivity, brain (60 min, listed as [18F]7a): 3.48 ± 0.12 % injected dose per gram

[18F]CCOc1ccc(COc2ccc(I)cc2)cc1 [[^18F]12a]
brain2 min/brain60 min ratio: 1.6 | Biodistribution of radioactivity, blood (2 min): 7.53 ± 0.80 % injected dose per gram | Biodistribution of radioactivity, bone (2 min): 2.55 ± 0.29 % injected dose per gram | Biodistribution of radioactivity, brain (2 min): > 5 % injected dose per gram | Biodistribution of radioactivity, heart (2 min): 9.11 ± 1.07 % injected dose per gram | Biodistribution of radioactivity, intestine (2 min): 7.72 ± 0.54 % injected dose per organ | Biodistribution of radioactivity, kidney (2 min): 11.63 ± 0.86 % injected dose per gram | Biodistribution of radioactivity, liver (2 min): 13.20 ± 1.45 % injected dose per gram | Biodistribution of radioactivity, lung (2 min): 9.17 ± 1.10 % injected dose per gram | Biodistribution of radioactivity, muscle (2 min): 5.38 ± 0.47 % injected dose per gram | Biodistribution of radioactivity, pancreas (2 min): 8.75 ± 0.33 % injected dose per gram | Biodistribution of radioactivity, spleen (2 min): 4.98 ± 0.32 % injected dose per gram | Biodistribution of radioactivity, stomach (2 min): 1.70 ± 0.08 % injected dose per organ | Biodistribution of radioactivity, brain (2 min, listed as [18F]12a): 6.76 ± 0.41 % injected dose per gram | Biodistribution of radioactivity, blood (10 min): 4.55 ± 0.36 % injected dose per gram | Biodistribution of radioactivity, bone (10 min): 2.13 ± 0.27 % injected dose per gram | Biodistribution of radioactivity, brain (10 min): 5.73 ± 0.44 % injected dose per gram | Biodistribution of radioactivity, heart (10 min): 4.40 ± 0.36 % injected dose per gram | Biodistribution of radioactivity, intestine (10 min): 6.94 ± 0.53 % injected dose per organ | Biodistribution of radioactivity, kidney (10 min): 6.19 ± 0.46 % injected dose per gram | Biodistribution of radioactivity, liver (10 min): 4.74 ± 0.36 % injected dose per gram | Biodistribution of radioactivity, lung (10 min): 4.91 ± 0.60 % injected dose per gram | Biodistribution of radioactivity, muscle (10 min): 3.92 ± 0.41 % injected dose per gram | Biodistribution of radioactivity, pancreas (10 min): 3.96 ± 0.27 % injected dose per gram | Biodistribution of radioactivity, spleen (10 min): 3.55 ± 0.26 % injected dose per gram | Biodistribution of radioactivity, stomach (10 min): 1.54 ± 0.32 % injected dose per organ | Biodistribution of radioactivity, blood (30 min): 5.91 ± 0.33 % injected dose per gram | Biodistribution of radioactivity, bone (30 min): 3.31 ± 0.21 % injected dose per gram | Biodistribution of radioactivity, brain (30 min): 5.02 ± 0.32 % injected dose per gram | Biodistribution of radioactivity, heart (30 min): 5.41 ± 0.36 % injected dose per gram | Biodistribution of radioactivity, intestine (30 min): 8.09 ± 0.43 % injected dose per organ | Biodistribution of radioactivity, kidney (30 min): 6.19 ± 0.37 % injected dose per gram | Biodistribution of radioactivity, liver (30 min): 4.84 ± 0.28 % injected dose per gram | Biodistribution of radioactivity, lung (30 min): 5.34 ± 0.31 % injected dose per gram | Biodistribution of radioactivity, muscle (30 min): 4.71 ± 0.50 % injected dose per gram | Biodistribution of radioactivity, pancreas (30 min): 4.55 ± 0.36 % injected dose per gram | Biodistribution of radioactivity, spleen (30 min): 4.29 ± 0.36 % injected dose per gram | Biodistribution of radioactivity, stomach (30 min): 2.09 ± 0.32 % injected dose per organ | Biodistribution of radioactivity, blood (60 min): 5.87 ± 0.19 % injected dose per gram | Biodistribution of radioactivity, bone (60 min): 3.51 ± 0.78 % injected dose per gram | Biodistribution of radioactivity, brain (60 min): 4.26 % injected dose per gram | Biodistribution of radioactivity, heart (60 min): 4.76 ± 0.40 % injected dose per gram | Biodistribution of radioactivity, intestine (60 min): 8.50 ± 1.23 % injected dose per organ | Biodistribution of radioactivity, kidney (60 min): 5.48 ± 0.41 % injected dose per gram | Biodistribution of radioactivity, liver (60 min): 4.64 ± 0.21 % injected dose per gram | Biodistribution of radioactivity, lung (60 min): 5.19 ± 0.36 % injected dose per gram | Biodistribution of radioactivity, muscle (60 min): 4.51 ± 0.49 % injected dose per gram | Biodistribution of radioactivity, pancreas (60 min): 3.95 ± 0.25 % injected dose per gram | Biodistribution of radioactivity, spleen (60 min): 3.87 ± 0.34 % injected dose per gram | Biodistribution of radioactivity, stomach (60 min): 1.70 ± 0.29 % injected dose per organ | Biodistribution of radioactivity, brain (60 min, listed as [18F]12a): 4.26 ± 0.18 % injected dose per gram
